This passage reports MIC results from patent publication US20090221655A1, “ANTIBACTERIAL AGENTS” (Pitzer, Inc., priority 2006, published 2009).

≈ marks a conversion by molar mass, not a printed value.

Assay type in all cases: cell-based
The subject of one test is S. aureus UC-76 SA-1. Put plainly: in vitro antibacterial activity (MIC), S. aureus. The settings on record: Staphylococcus aureus, UC76; strain UC-76 SA-1; MIC = lowest concentration preventing macroscopically visible growth; read-out: in vitro antibacterial activity MIC5 S. aureus UC-76 SA-1. The text has this: (§1) The in vitro antibacterial activity of the compounds of the present invention may be assessed by following procedures recommended in (1) National Committee for Clinical Laboratory Standards (January 2003), Methods for dilution antimicrobial tests for bacteria that grow aerobically, Approved Standard (6th ed), M7-A6, NCCLS, Wayne, Pa.; (2) National Committee for Clinical Laboratory Standards (March 2001), Methods for antimicrobial susceptibility testing of anaerobic bacteria, Approved Standard (5th ed), M11-A4, NCCLS, Wayne, Pa.; (3) National Committee for Clinical Laboratory Standards (Jan. 2003), MIC testing supplemental tables, M100-S13 (for use with M7-A6), NCCLS, Wayne, Pa.; and (4) Murray P R, Baron E J, Jorgensen J H, et al. Manual of Clinical Microbiology (8th ed) Washington, D.C.: American Society for Microbiology Press, 2003. The antibacterial activity can be presented in the form of MIC value. The MIC value is the lowest concentration of drug, which prevented macroscopically visible growth under the conditions of the test.

The test system of the next test is S. pneumoniae SV1 SP-3. Put plainly: in vitro antibacterial activity (MIC), S. pneumoniae. As to conditions: Streptococcus pneumoniae, SV1SP3; strain SV1 SP-3; MIC = lowest concentration preventing macroscopically visible growth; read-out: in vitro antibacterial activity MIC5 S. pneumoniae SV1 SP-3.
Source text: as §1

The test system of another test is E. faecalis MGH-2 EF 1-1. Briefly: in vitro antibacterial activity (MIC), E. faecalis. The settings on record: Enterococcus faecalis, MGH2EF11; strain MGH-2 EF 1-1; MIC = lowest concentration preventing macroscopically visible growth; read-out: in vitro antibacterial activity MIC5 E. faecalis MGH-2 EF 1-1.
Source text: as §1

Consider `CC(=O)NC[C@H]1CN(c2ccc3c(C)noc3c2)C(=O)O1` [Example 1, (S)—N-[3-(3-methyl-benzo[d]isoxazol-6-yl)-2-oxo-oxazolidin-5-ylmethyl]-acetamide], for which the figures for the MIC in the test with S. aureus UC-76 SA-1, with S. pneumoniae SV1 SP-3 and in the test with E. faecalis MGH-2 EF 1-1 were 2 µg/mL (≈ 6.91 µM), 1 µg/mL (≈ 3.46 µM) and 2 µg/mL (≈ 6.91 µM), respectively.

As for `CCC(=O)NC[C@H]1CN(c2ccc3c(C)noc3c2)C(=O)O1` [Example 2, (S)—N-[3-(3-methyl-benzo[d]isoxazol-6-yl)-2-oxo-oxazolidin-5-ylmethyl]-propionamide], the MIC with S. aureus UC-76 SA-1 was 2 µg/mL (≈ 6.59 µM); with S. pneumoniae SV1 SP-3 it was 2 µg/mL (≈ 6.59 µM); with E. faecalis MGH-2 EF 1-1, 4 µg/mL (≈ 13.2 µM).

Regarding `COC(=O)NC[C@H]1CN(c2ccc3c(C)noc3c2)C(=O)O1` [Example 3, (S)-[3-(3-methyl-benzo[d]isoxazol-6-yl)-2-oxo-oxazolidin-5-ylmethyl]-carbamic acid methyl ester], the MIC turned out to be 4 µg/mL (≈ 13.1 µM) with S. aureus UC-76 SA-1, 2 µg/mL (≈ 6.55 µM) in the test with S. pneumoniae SV1 SP-3 and 4 µg/mL (≈ 13.1 µM) with E. faecalis MGH-2 EF 1-1.

Turning to `Cc1noc2cc(N3C[C@H](Cn4ccnn4)OC3=O)ccc12` [Example 4, (R)-3-(3-methyl-benzo[d]isoxazol-6-yl)-5-[1,2,3]triazol-1-ylmethyl-oxazolidin-2-one], the MIC was 4 µg/mL (≈ 13.4 µM) with S. aureus UC-76 SA-1, 2 µg/mL (≈ 6.68 µM) in the test on S. pneumoniae SV1 SP-3 and 4 µg/mL (≈ 13.4 µM) in the test on E. faecalis MGH-2 EF 1-1.

Consider `Cc1noc2cc(N3C[C@H](C(N)=O)OC3=O)ccc12` [Example 6, (R)-3-(3-methyl-benzo[d]isoxazol-6-yl)-2-oxo-oxazolidine-5-carboxylic acid amide], for which the MIC in the test on S. aureus UC-76 SA-1 stood at 4 µg/mL (≈ 15.3 µM); in the test with S. pneumoniae SV1 SP-3, 4 µg/mL (≈ 15.3 µM); in the test with E. faecalis MGH-2 EF 1-1, 8 µg/mL (≈ 30.6 µM).

In the case of `CNC(=O)[C@H]1CN(c2ccc3c(C)noc3c2)C(=O)O1` [Example 7, (R)-3-(3-methyl-benzo[d]isoxazol-6-yl)-2-oxo-oxazolidine-5-carboxylic acid methylamide], the MIC with S. aureus UC-76 SA-1, with S. pneumoniae SV1 SP-3 and with E. faecalis MGH-2 EF 1-1 was 4 µg/mL (≈ 14.5 µM) throughout.

On to `CONC(=O)[C@H]1CN(c2ccc3c(C)noc3c2)C(=O)O1` [Example 8, (R)-3-(3-methyl-benzo[d]isoxazol-6-yl)-2-oxo-oxazolidine-5-carboxylic acid methoxy-amide], for which the MIC is 4 µg/mL (≈ 13.7 µM) with S. aureus UC-76 SA-1, 8 µg/mL (≈ 27.5 µM) in the test with S. pneumoniae SV1 SP-3 and 4 µg/mL (≈ 13.7 µM) in the test with E. faecalis MGH-2 EF 1-1.

With `CCONC(=O)[C@H]1CN(c2ccc3c(C)noc3c2)C(=O)O1` [Example 9, (R)-3-(3-methyl-benzo[d]isoxazol-6-yl)-2-oxo-oxazolidine-5-carboxylic acid ethoxy-amide], the MIC with S. aureus UC-76 SA-1 worked out at 4 µg/mL (≈ 13.1 µM); in the test with S. pneumoniae SV1 SP-3 it was 8 µg/mL (≈ 26.2 µM); in the test with E. faecalis MGH-2 EF 1-1, 4 µg/mL (≈ 13.1 µM).
